Assay results taken from patent US20130123185A1, “METHODS OF TREATING AND DIAGNOSING ACUTE CHEST SYNDROME” (EMORY UNIVERSITY, priority 2010, published 2013).
Read-outs that look alike come from different tables or passages of the source.

Tests used:
[1] = system: C57BL/6J, B6.B10ScN-Tlr4lps-del/JthJ and C3H/HeJ mice; assay type: in vivo
Experimental: The role of TLR-4 in response to an acute increase in free heme was investigated. Wild type C57BL/6J mice and TLR-4 mutant mice B6.B10ScN-Tlr4^lps-del and C3H/HeJ (Poltorak et al. Defective LPS signaling in C3H/HeJ and C57BL/10ScCr mice: mutations in Tlr4 gene. Science. 1998; 282(5396):2085-2088.; Qureshi et al. Endotoxin-tolerant mice have mutations in Toll-like receptor 4 (Tlr4). The J Expt. Med. 1999; 189(4):615-625) were injected intravenously with 210 μmoles/kg hemin, a normally lethal dose. This injection increased free heme concentrations by a magnitude of 50-fold in both wild type and TLR-4 mutant mice (FIG. 6a).
TPH per se, therefore, the involvement of a receptor mediated mechanism was suspected. Several heme receptors have been characterized, including TLR433, which is uniquely expressed by multiple cells in the circulation and therefore accessible to PFPH. Studies were performed in wild-type C57BL/6J mice, and mutant strains, B6.B10ScN-Tlr4lps-del/JthJ and C3H/HeJ, harboring a deletion and a point mutation respectively, in the murine TLR4 gene. Significant elevation of PFPH in these mice required a large dose of heme (210 μmoles/kg) (FIG. 12a), and as expected this amount of heme interfered, transiently with SpO2 measurements characterized by an immediate and dramatic decline. […] This interpretation was supported by a return of SpO2 values to normal in C3H/HeJ but not in the wild-type C57BL/6J mice, indeed, SpO2 deteriorated over time in the latter reminiscent of the decline in SS mice (FIG. 12b). […] These unique pulmonary responses were consistent with survival (FIG. 12d) and lung histology (FIG. 13).

[2] = system: SS mice; experiment: TAK-242 pre-treatment before heme in SS mice; assay type: in vivo, mouse
Experimental: (a, b) The concentration of total and protein-free plasma heme in SS mice following, injections of TAK-242 or intralipid in the absence of exogenous heme. (c, d) Percentage oxygen saturation and breath rate monitored in real-time in SS mice at different stages of the experiment as indicated. Data shown are for a total of nine SS mice (intralipid; n=4, TAK-242; n=5). (e) Survival of SS mice pre-treated with TAK-242 (3 or 5 mg/kg) for 1 h prior to intravenous administration of heme (n=7-13). Control mice were treated with intralipid (n=17). (f) Representative lung H&E staining of SS mice treated with intralipid or TAK-242 one hour prior to administration of heme (35 μmoles/kg). Cumulative lung injury score (n=3). *p<0.05, **p<0.01 and ***p<0.001.
TAK-242 (resatorvid) is a small molecule that binds to Cys747 of the intracellular domain of TLR4 and inhibits downstream signaling. It inhibits the production of lipopolysaccharide (LPS)-induced inflammatory mediators, and it improves survival in LPS-induced sepsis. […] One hour prior to heme administration, a cohort of SS mice were intravenously administered 5 mg/kg of TAK-242, or intralipid. […] Heme had no impact on SpO2 in the majority of TAK-242 treated SS mice (5/6), however it caused an initially subtle yet sustained decrease that deteriorated over time in the intralipid treated mice (FIG. 14c). […] TAK-242 protected 83% of the SS mice from heme induced lethality, compared to 20% in the group given intralipid. These survival data were similar to those obtained in subsequent experiments focused on heme induced lethality (TAK-242; 5/7 (71%) protection, intralipid; 3/12 […] protection). The combined data is shown in FIG. 14e, and is supported by histological analysis (FIG. 14f).

[3] = system: NF-κB; experiment: NF-κB activation in pulmonary microvascular endothelial cells; assay type: cell-based; conditions: PMVECs, hemin 5 or 10 μM
From the text: Additionally, the role of NF-κB in the inflammatory response to free heme that occurs in ACS was investigated. Endothelial TLR4, and not neutrophil TLR4, mediates the early stage of the acute sequestration of neutrophils into the lungs in response to systemic LPS (Andonegui et al. Endothelium-derived Toll-like receptor-4 is the key molecule in LPS-induced neutrophil sequestration into lungs. J Clin Invest. 2003; 111(7):1011-1020; Andonegui et al. Mice that exclusively express TLR4 on endothelial cells can efficiently clear a lethal systemic Gram-negative bacterial infection. J Clin Invest. 2009; 119(7): 1921-1930). Thus, pulmonary microvascular endothelial cells (PMVECs) may play a role in the inflammatory response to free heme. […] These include nuclear translocation of p65 NF-κB in PMVECs as determined by immunofluorescence staining and western blot of nuclear extract (FIGS. 7b and 7c, respectively), luciferase reporter gene activity driven by a promoter harboring NF-κB cis elements in PMVECs (FIG. 7d), and TNF-α production (FIG. 7e).

[4] = system: SS mice
[5] = system: non-sickle cell disease mice; conditions: hemin 70 μmoles/kg, Vinchi et al.; cited from earlier work
[6] = system: SS mice; experiment: Acute prophylaxis with recombinant human hemopexin before heme in SS mice; assay type: in vivo, mouse; conditions: 1 mg intravenously immediately before heme 35 μmoles/kg
Experimental: Mice were injected with rhHx (n=6), vehicle (n=5) or human IgG (n=3) immediately before administration of heme (35 μmoles/kg). *p<0.05, **p<0.01 and ***p<0.001.
The hemopexin-treated mice were all protected while the control mice succumbed to heme (FIG. 11). Thus, acute prophylaxis using hemopexin may be an attractive therapeutic strategy to block the deleterious effects of PFPH during severe episodes of acute hemolysis in SCD.

Molecule: C=CC1=C(C)c2cc3[nH]c(cc4[nH]c(cc5nc(cc1n2)C(C)=C5C=C)c(C)c4CCC(=O)[O-])c(CCC(=O)[O-])c3C.[Na+].[Na+] [Na-PPIX, sodium protoporphyrin IX]
- survival ([1]; injected at the LD100 of heme, C57BL/6J mice): no impact on survival

Molecule: CCOC(=O)C1=CCCC[C@H]1S(=O)(=O)Nc1ccc(F)cc1Cl [TAK-242, resatorvid]
- development of heme induced ALI ([2]; SCD mice, pre-treatment 1 h before heme): prevents
- scavenging of heme (total and protein-free plasma heme) ([2]; SS mice, absence of exogenous heme): did not alter
- protection from heme induced lethality ([2]; TAK-242 5 mg/kg 1 h before heme, SS mice, first cohort): 83%
- SS mice in which heme had no impact on SpO2 ([2]; TAK-242 5 mg/kg intravenously 1 h before heme): 5/6
- breath rate after heme ([2]; TAK-242 5 mg/kg intravenously 1 h before heme, SS mice): remained essentially the same
- protection from heme induced lethality ([2]; subsequent experiments focused on lethality, SS mice): 71%

Molecule: Fe(III)PPIX [hemin]
- mortality ([1]; hemin 210 μmoles/kg, both types of TLR-4 mutant mice): 0%
- mortality rate ([1]; hemin 210 μmoles/kg, wild type C57BL/6J mice, after 90 minutes): 100%
- NF-κB activation (p65 nuclear translocation, luciferase reporter, TNF-α production) [3]: dose-dependently activates
- serum ALT ([4]; SS mice treated with heme, at the median time of death): normal
- plasma hemopexin level after heme injection ([4]; SS mice, heme 35 μmoles/kg, 5-30 min): virtually undetectable levels
- survival ([4]; heme 35 μmoles/kg, SS mice with the highest baseline hemopexin level): 50%
- survival ([4]; heme 35 μmoles/kg, SS mice with the lowest baseline hemopexin (<0.1 mg/ml)): none
- survival ([4]; heme 70 μmoles/kg, AS and AA mice): no impact on survival
- total plasma heme (TPH) and protein-free plasma heme (PFPH) ([4]; heme 17.5-70 μmoles/kg intravenously, SS mice): raised TPH and PFPH in a dose-dependent manner
- lethality ([4]; heme 17.5-70 μmoles/kg, SS mice): caused lethality in SS mice in a dose-dependent manner
- oxygen saturation (SpO2) ([4]; hemin 70 μmoles/kg intravenous, SS mice): sharp drop
- increase of plasma concentration of heme ([4]; hemin 70 μmoles/kg intravenously, SS and control mice): 20 fold
- change in SpO2 or breath rate ([4]; hemin 70 μmoles/kg, AS mice): no significant change
- change in hematocrit ([4]; hemin 70 μmoles/kg, SS or control mice): did not significantly change
- lethality ([4]; hemin 70 μmoles/kg, Townes and Berkeley SCD mice): caused sudden death
- mortality ([4]; hemin 70 μmoles/kg, adult SS mice aged 13-27 weeks): 100%
- survival ([4]; hemin 70 μmoles/kg, young SS mice 5-7 weeks old): 80%
- increase of lung permeability [5]: 2 fold

Molecule: Iron mesoporphyrin [Fe(III)MPP-IX]
- survival ([1]; mouse, in vivo): no impact on survival

B1: recombinant human hemopexin: recombinant human hemopexin, a protein that binds free heme for transport to the liver (protein, UniProt P02790 24-462, looked up)
Hemopexin: TPLPPTSAHGNVAEGETKPDPDVTERCSDGWSFDATTLDDNGTMLFFKGEFVWKSHKWDRELISERWKNFPSPVDAAFRQGHNSVFLIKGDKVWVYPPEKKEKGYPKLLQDEFPGIPSPLDAAVECHRGECQAEGVLFFQGDREWFWDLATGTMKERSWPAVGNCSSALRWLGRYYCFQGNQFLRFDPVRGEVPPRYPRDVRDYFMPCPGRGHGHRNGTGHGNSTHHGPEYMRCSPHLVLSALTSDNHGATYAFSGTHYWRLDTSRDGWHSWPIAHQWPQGPSAVDAAFSWEEKLYLVQGTQVYVFLTKGGYTLVSGYPKRLEKEVGTPHGIILDSVDAAFICPGSSRLHIMAGRRLWWLDLKSGAQATWTELPWPHEKVDGALCMEKSLGPNSCSANGPGLYLIHGPNLYCYSDVEKLNAAKALPQPQNVTSLLGCTH
- protection from heme induced lethality [6]: all protected
- protection from heme induced lethality ([6]; listed as rhHx): protects
